Consider 5 compounds from ChEMBL document CHEMBL6178017, “Intercepting the Downstream of the Estrogen Receptor Signaling Pathway: Discovery of a Potent and Efficient SRC-3 PROTAC Degrader for Overcoming Endocrine Resistance Breast Cancer” (J Med Chem, 2025).

Activity calls are given as the source filed them. Bounds are passed on as bounds.

Series [1] deals with MCF7. In words: Induction of SRC-3 degradation in human MCF7 cells at 1 uM incubated for 24 hrs by immunoblot analysis relative to control. The format is cell-based.
Series [2] has as its system MCF7. In words: Antiproliferative activity against human MCF7 cells assessed as inhibition of cell growth by CCK8 assay. Format: functional, cell-based.
Series [3] in a line: Induction of apoptosis in tamoxifen-resistant human LCC2 cells assessed as late apoptotic cells incubated for 48 hrs by AnnexinV-FITC/PI staining based flow cytometry (reference value: 4.83%). Format: functional, Tamoxifen-resistant LCC2 cell. (Flow cytometry measures light scatter and fluorescence of single cells or particles in a stream.)
The test system of series [4] is MCF7. The series can be described thus: Antiproliferative activity against human MCF7 cells harboring ER-alpha D538G mutant assessed as inhibition of cell growth by CCK8 assay. Format: functional, cell-based. A general note: Tetrazolium dyes change colour on reduction, which living cells bring about.
Series [5] is described as follows: Antiproliferative activity against tamoxifen-resistant human LCC2 cells assessed as inhibition of cell growth by CCK8 assay. Format: functional, cell-based.
A short description of series [6]: Induction of apoptosis in tamoxifen-resistant human LCC2 cells assessed as early apoptotic cells incubated for 48 hrs by AnnexinV-FITC/PI staining based flow cytometry (reference value: 5.92%). The format is functional, Tamoxifen-resistant LCC2 cell.
Series [7] has as its system MCF7. In words: Antiproliferative activity against human MCF7 cells harboring ER-alpha Y537S mutant assessed as inhibition of cell growth by CCK8 assay. The format is functional, cell-based.
A short description of series [8]: Induction of apoptosis in tamoxifen-resistant human LCC2 cells assessed as viable cells incubated for 48 hrs by AnnexinV-FITC/PI staining based flow cytometry (reference value: 88.09%). The format is functional, Tamoxifen-resistant LCC2 cell.
The subject of series [9] is Mus musculus. In words: In vivo PROTAC activity at CRBN/SRC-3 in Balb/c mouse xenografted with tamoxifen-resistant human LCC2 cells assessed as induction of SRC-3 degradation in tumor tissues at 5 uM/Kg, ip administered once every 2 days for 23 days and measured on day 25 by western blot analysis. The format is functional, organism-based. Conditions: time 25.0 day.
The test system of series [10] is MCF7. In words: Induction of ER-alpha degradation in human MCF7 cells at 1 uM incubated for 24 hrs by immunoblot analysis relative to control. Format: cell-based.
A short description of series [11]: Induction of apoptosis in tamoxifen-resistant human LCC2 cells assessed as necrotic cells incubated for 48 hrs by AnnexinV-FITC/PI staining based flow cytometry (reference value: 1.16%). The format is functional, Tamoxifen-resistant LCC2 cell.
Series [12] relates to Tamoxifen-resistant LCC2 cell. In words: Antitumor activity against tamoxifen-resistant human LCC2 cells xenografted in Balb/c mouse assessed as inhibition of tumor growth at 3 uM/Kg, ip administered once every 2 days for 23 days. The format is functional, organism-based. The following applies: time 23.0 day.
The test system of series [13] is MCF-10A. In words: Cytotoxicity against human MCF-10A cells assessed as cell growth by CCK-8 assay. Format: toxicity, cell-based.
Series [14] deals with T1, von Hippel-Lindau disease tumor suppressor/Nuclear receptor coactivator 3 (Homo sapiens) (UniProt Q9Y6Q9+P40337). In words: PROTAC activity at VHL/SRC-3 in human MCF7 cells assessed as induction of SRC-3 degradation at 1 uM incubated for 24 hrs by immunoblot analysis relative to control. Format: cell-based. A general note: A western blot detects proteins with antibodies after separation by electrophoresis.
T1 sequence (P40337 whole entry, looked up): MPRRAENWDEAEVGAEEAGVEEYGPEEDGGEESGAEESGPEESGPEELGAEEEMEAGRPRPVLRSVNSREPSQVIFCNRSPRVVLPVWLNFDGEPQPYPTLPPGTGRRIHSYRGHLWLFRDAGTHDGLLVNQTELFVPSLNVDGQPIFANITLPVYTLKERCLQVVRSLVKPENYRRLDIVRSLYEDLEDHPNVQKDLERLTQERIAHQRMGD
T1 sequence (Q9Y6Q9 whole entry, looked up): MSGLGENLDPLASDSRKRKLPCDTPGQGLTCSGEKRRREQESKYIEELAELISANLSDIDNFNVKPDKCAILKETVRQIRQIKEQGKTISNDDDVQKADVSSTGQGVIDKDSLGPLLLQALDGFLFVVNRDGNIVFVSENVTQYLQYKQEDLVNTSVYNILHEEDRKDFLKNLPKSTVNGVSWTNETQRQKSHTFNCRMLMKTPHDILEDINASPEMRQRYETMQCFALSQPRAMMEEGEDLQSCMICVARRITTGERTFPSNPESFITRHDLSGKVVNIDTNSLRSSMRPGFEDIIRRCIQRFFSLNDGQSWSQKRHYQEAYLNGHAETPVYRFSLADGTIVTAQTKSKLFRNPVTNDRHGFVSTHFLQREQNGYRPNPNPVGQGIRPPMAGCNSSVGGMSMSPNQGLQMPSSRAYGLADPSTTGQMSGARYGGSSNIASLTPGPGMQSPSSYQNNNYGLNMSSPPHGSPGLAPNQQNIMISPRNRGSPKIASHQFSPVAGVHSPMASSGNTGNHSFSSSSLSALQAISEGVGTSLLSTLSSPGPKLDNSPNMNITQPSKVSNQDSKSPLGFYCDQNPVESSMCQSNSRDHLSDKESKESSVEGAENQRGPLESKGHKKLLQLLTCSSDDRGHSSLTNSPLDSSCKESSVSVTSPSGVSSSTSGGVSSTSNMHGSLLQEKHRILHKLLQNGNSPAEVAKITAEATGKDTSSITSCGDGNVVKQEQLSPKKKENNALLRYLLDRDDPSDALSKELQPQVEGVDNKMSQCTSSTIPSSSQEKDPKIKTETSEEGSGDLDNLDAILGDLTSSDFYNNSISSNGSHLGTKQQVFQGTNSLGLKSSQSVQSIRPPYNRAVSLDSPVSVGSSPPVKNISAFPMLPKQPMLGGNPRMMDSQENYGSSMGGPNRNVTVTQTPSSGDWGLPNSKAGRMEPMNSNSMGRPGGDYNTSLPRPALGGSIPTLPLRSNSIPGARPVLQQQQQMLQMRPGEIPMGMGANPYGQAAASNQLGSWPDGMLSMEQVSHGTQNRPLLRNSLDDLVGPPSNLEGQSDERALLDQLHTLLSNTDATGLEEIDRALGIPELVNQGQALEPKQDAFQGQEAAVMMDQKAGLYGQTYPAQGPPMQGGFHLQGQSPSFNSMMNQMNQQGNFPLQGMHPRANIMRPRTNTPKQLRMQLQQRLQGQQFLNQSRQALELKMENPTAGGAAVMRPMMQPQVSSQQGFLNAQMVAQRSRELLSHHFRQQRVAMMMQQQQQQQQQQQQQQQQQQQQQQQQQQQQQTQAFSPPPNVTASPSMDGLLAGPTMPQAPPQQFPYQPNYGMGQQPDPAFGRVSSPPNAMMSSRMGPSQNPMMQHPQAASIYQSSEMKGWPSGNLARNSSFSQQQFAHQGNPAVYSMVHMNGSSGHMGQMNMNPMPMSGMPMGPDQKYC

Series [15] relates to LNCaP. The series can be described thus: Antiproliferative activity against human LNCaP cells assessed as inhibition of cell growth by CCK-8 assay. The format is functional, cell-based.
In series [16] the target is T1, von Hippel-Lindau disease tumor suppressor/Nuclear receptor coactivator 3 (Homo sapiens). In words: PROTAC activity at VHL/SRC-3 in human MCF7 cells assessed as induction of […] degradation at 1 uM incubated for 24 hrs by immunoblot analysis relative to control. Format: cell-based.
The nature of series [17]: Half life of the compound in human plasma by LC-MS/MS analysis. Format: ADME, cell-free.
Series [18] is described as follows: Metabolic stability of the compound in human plasma measured after 2 hrs by LC-MS/MS analysis. The following applies: read-out: Stability. The format is ADME, cell-free.
Series [19] concerns the target T2, Protein cereblon/Nuclear receptor coactivator 3 (Homo sapiens, UniProt Q9Y6Q9+Q96SW2). In words: PROTAC activity at CRBN/SRC-3 in tamoxifen-resistant human LCC2 cells assessed as maximal induction of SRC-3 degradation at 1 uM incubated for 36 hrs by immunoblot analysis. Format: cell-based. The following applies: Tamoxifen-resistant LCC2 cell.
Series [20] deals with T2, Protein cereblon/Nuclear receptor coactivator 3. In words: PROTAC activity at CRBN/SRC-3 in human MCF7 cells assessed as maximal induction of SRC-3 degradation at 1 uM incubated for 36 hrs by immunoblot analysis. The format is cell-based.

T2 sequence (Q96SW2 whole entry partner): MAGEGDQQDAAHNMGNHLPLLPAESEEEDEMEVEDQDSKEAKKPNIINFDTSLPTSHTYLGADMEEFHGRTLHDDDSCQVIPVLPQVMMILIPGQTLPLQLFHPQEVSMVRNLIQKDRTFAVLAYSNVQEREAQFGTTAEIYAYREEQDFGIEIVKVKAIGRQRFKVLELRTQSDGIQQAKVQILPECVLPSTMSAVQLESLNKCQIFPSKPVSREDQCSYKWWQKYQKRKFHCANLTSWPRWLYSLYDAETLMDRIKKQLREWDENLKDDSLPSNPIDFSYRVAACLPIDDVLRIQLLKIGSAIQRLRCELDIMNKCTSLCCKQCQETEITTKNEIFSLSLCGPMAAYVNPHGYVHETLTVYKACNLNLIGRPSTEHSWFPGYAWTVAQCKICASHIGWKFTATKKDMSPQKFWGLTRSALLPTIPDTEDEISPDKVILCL
T2 sequence (Q9Y6Q9 2-1424 limits assumed): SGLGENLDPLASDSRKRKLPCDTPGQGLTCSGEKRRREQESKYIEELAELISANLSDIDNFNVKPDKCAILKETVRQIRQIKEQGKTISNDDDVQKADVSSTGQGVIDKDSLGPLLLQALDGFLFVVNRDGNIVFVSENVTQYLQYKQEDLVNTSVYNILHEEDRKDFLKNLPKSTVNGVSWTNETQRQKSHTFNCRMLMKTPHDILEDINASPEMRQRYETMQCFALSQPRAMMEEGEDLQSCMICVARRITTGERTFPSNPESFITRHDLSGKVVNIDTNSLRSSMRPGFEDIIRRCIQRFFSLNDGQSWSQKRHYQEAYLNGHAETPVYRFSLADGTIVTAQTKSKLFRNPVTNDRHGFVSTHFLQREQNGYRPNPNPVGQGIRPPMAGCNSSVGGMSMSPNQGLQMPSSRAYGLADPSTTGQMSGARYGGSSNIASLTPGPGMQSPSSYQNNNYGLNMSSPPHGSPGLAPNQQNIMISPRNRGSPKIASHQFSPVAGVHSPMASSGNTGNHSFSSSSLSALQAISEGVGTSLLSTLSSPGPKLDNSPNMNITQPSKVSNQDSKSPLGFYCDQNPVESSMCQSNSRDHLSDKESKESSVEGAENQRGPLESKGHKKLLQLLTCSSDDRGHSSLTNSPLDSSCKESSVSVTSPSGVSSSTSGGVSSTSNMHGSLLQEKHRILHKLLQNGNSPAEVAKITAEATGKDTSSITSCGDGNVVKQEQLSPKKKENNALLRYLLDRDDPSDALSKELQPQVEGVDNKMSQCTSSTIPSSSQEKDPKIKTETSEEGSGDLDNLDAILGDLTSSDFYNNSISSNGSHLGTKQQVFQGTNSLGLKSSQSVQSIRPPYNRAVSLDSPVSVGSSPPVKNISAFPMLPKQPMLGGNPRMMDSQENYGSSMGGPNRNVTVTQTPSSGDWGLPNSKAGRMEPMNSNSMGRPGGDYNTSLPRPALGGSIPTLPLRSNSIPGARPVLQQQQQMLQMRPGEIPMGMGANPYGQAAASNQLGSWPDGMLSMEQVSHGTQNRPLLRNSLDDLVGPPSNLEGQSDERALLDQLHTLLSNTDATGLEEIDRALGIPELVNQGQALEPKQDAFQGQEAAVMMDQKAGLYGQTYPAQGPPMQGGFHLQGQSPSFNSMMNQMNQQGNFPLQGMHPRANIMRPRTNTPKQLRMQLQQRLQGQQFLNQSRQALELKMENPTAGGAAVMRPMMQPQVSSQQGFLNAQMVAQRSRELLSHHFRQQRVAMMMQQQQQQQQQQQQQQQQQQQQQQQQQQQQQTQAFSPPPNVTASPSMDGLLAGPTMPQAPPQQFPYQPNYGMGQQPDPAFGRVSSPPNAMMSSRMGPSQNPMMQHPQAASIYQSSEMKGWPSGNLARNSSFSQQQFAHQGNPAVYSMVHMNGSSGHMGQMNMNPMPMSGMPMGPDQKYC

On to `C[C@]12CC[C@@H]3c4ccc(O)cc4C[C@@H](CCCCCCCCC[S+]([O-])CCCC(F)(F)C(F)(F)F)[C@H]3[C@@H]1CC[C@@H]2O` (stereo not given in full) [FULVESTRANT], for which the result in [1] and in series [9] was inactive. The IC50 in [2] came to 220 nM; in series [4], 580 nM; in series [5], 470 nM; in [7], 6150 nM. The Activity was determined as 12.06% in [3]; 15.07% in [6]; 69.81% in series [8]; 86% in [10]; 3.06% in series [11].

For the compound `CC/C(=C(\c1ccccc1)c1ccc(OCCN(C)C)cc1)c1ccccc1`, the outcome in series [12] was inactive.

For the compound `C/C(=N\Nc1nc2ccccc2n1CCNC(=O)CCCCCCCCN[C@H](C(=O)N1C[C@H](O)C[C@H]1C(=O)N[C@@H](C)c1ccc(-c2scnc2C)cc1)C(C)(C)C)c1ccccn1`, the Activity result is “Non-toxic” in series [13], 68% in series [14] and 65% in series [16]. Also, the IC50 was determined as 60 nM in series [2]; 360 nM in series [4]; 750 nM in series [5]; 1430 nM in [15]; 150 nM in series [7].

Consider `C/C(=N\Nc1nc2ccccc2n1C)c1ccccn1`, for which the Activity was 53% in [1] and 86% in series [10]. The half-inhibitory concentration (IC50) came to 470 nM in series [2], 770 nM in series [4], 600 nM in series [5] and 4 nM in series [7]. Moreover, the half-life in series [17] worked out at 2.17 h. Further, the remaining at 2 h in [18] was greater than 50%.

Regarding `C/C(=N\Nc1nc2ccccc2n1C1CN(C2CCN(c3cccc4c3C(=O)N(C3CCC(=O)N(C)C3=O)C4=O)CC2)C1)c1ccccn1` (stereo not given), the result in series [19] and in series [20] was inactive.

The IC50 is the midpoint of a concentration-inhibition curve. For orientation: half-life means the time needed for the level to fall by half in the phase considered. A lower half-life goes with fast loss.
